Data from ChEMBL document CHEMBL2176906, “Diterpenoids isolated from Sideritis species protect astrocytes against oxidative stress via Nrf2” (J Nat Prod, 2012).
Active and inactive are the calls of the source. No cut-off for these calls is given here.

What was measured:
[1] = tested on: U373 MG; assay: Induction of selenium-dependent GPx activity in human U373MG cells assessed as […] per mg protein preincubated at 10 uM for 24 hrs before H2O2 challenge by fluorimetric method (reference value: 14.7 +/- 2.9 nmol/min/mg protein); assay type: functional, U-373MG ATCC
[2] = molecular target: T1, Nuclear factor erythroid 2-related factor 2 (Homo sapiens) (UniProt Q16236); assay: Induction of Nrf2-mediated GPx protein expression in H2O2-stimulated human U373MG cells preincubated at 5 uM for 24 hrs before H2O2 challenge by Western blot method; assay type: cell-based; settings: U-373MG ATCC
T1 sequence (whole entry): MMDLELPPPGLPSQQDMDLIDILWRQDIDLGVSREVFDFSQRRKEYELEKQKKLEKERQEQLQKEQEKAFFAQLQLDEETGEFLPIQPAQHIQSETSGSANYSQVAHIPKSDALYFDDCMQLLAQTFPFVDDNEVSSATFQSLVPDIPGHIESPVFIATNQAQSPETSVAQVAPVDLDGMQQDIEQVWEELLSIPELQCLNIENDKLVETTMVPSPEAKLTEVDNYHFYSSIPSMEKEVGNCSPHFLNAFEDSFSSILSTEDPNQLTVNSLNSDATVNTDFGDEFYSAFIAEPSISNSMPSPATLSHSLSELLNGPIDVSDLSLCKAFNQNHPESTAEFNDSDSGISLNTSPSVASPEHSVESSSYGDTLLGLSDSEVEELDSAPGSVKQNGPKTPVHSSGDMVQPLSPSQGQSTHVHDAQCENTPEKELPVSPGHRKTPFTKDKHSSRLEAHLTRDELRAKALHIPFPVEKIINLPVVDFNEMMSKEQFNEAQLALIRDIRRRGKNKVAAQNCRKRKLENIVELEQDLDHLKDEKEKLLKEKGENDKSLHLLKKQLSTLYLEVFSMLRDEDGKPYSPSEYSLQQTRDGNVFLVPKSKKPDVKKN

[3] = tested on: U373 MG; assay: Inhibition of H2O2-induced lipid peroxidation in human U373MG cells assessed as reduction in MDA levels per mg protein at 5 uM by HPLC analysis (reference value: 0.95 +/- 0.03 nmol/mg protein); assay type: functional, U-373MG ATCC
[4] = tested on: U-373MG ATCC; assay: Antioxidant activity in human U373MG cells assessed as reduction in H2O2-induced morphological changes preincubated at 5 uM for 24 hrs before H2O2 challenge by phase-contrast microscopy; assay type: functional, cell-based
[5] = tested on: U373 MG; assay: Inhibition of H2O2-induced oxidative stress in human U373MG cells assessed as GSH level per mg protein at 10 uM by fluorimetric method (reference value: 17.1 +/- 1.7 nmol/mg protein); assay type: functional, U-373MG ATCC
[6] = tested on: U373 MG; assay: Induction of Nrf2 nuclear protein expression in H2O2-stimulated human U373MG cells preincubated at 5 uM for 24 hrs before H2O2 challenge by Western blot method; assay type: functional, cell-based; settings: U-373MG ATCC
[7] = tested on: U373 MG; assay: Induction of total GPx activity in human U373MG cells assessed as […] per mg protein preincubated at 5 uM for 24 hrs before H2O2 challenge by fluorimetric method (reference value: 58.5 +/- 5.1 nmol/min/mg protein); assay type: functional, U-373MG ATCC
[8] = molecular target: T1, Nuclear factor erythroid 2-related factor 2 (Homo sapiens); assay: Induction of Nrf2-mediated GPx protein expression in H2O2-stimulated human U373MG cells preincubated at 10 uM for 24 hrs before H2O2 challenge by Western blot method; assay type: cell-based; settings: U-373MG ATCC
[9] = tested on: U373 MG; assay: Induction of Glutathione reductase activity in human U373MG cells assessed as […] per mg protein preincubated at 5 uM for 24 hrs before H2O2 challenge by fluorimetric method (reference value: 9.3 +/- 2.2 nmol/min/mg protein); assay type: functional, U-373MG ATCC
[10] = tested on: U373 MG; assay: Induction of CAT activity in human U373MG cells assessed per mg protein preincubated at 10 uM for 24 hrs before H2O2 challenge by fluorimetric method (reference value: 18.9 +/- 0.4 UI/mg protein); assay type: functional, U-373MG ATCC
[11] = tested on: U373 MG; assay: Inhibition of H2O2-induced oxidative stress in human U373MG cells assessed as GSH level per mg protein at 5 uM by fluorimetric method (reference value: 17.1 +/- 1.7 nmol/mg protein); assay type: functional, U-373MG ATCC
[12] = tested on: U-373MG ATCC; assay: Antioxidant activity in human U373MG cells assessed as reduction in H2O2-induced morphological changes preincubated at 10 uM for 24 hrs before H2O2 challenge by phase-contrast microscopy; assay type: functional, cell-based
[13] = tested on: U373 MG; assay: Induction of total GPx activity in human U373MG cells assessed as […] per mg protein preincubated at 10 uM for 24 hrs before H2O2 challenge by fluorimetric method (reference value: 58.5 +/- 5.1 nmol/min/mg protein); assay type: functional, U-373MG ATCC
[14] = tested on: U373 MG; assay: Induction of Nrf2 nuclear protein expression in H2O2-stimulated human U373MG cells preincubated at 10 uM for 24 hrs before H2O2 challenge by Western blot method; assay type: functional, cell-based; settings: U-373MG ATCC
[15] = tested on: U373 MG; assay: Inhibition of H2O2-induced lipid peroxidation in human U373MG cells assessed as reduction in MDA levels per mg protein at 10 uM by HPLC analysis (reference value: 0.95 +/- 0.03 nmol/mg protein); assay type: functional, U-373MG ATCC
[16] = tested on: U373 MG; assay: Inhibition of H2O2-induced oxidative stress in human U373MG cells assessed as GSH/GSSG ratio at 5 uM (reference value: 1.8 +/- 0.1 ); assay type: functional, U-373MG ATCC
[17] = Cytotoxicity against human U373MG cells assessed as LDH release at 1 to 10 uM after 24 hrs by LDH assay; assay type: cell-based; settings: u-373mg atcc
[18] = tested on: U373 MG; assay: Induction of SOD activity in human U373MG cells assessed per mg protein preincubated at 10 uM for 24 hrs before H2O2 challenge by fluorimetric method (reference value: 14.2 +/- 3 UI/mg protein); assay type: functional, U-373MG ATCC
[19] = tested on: U373 MG; assay: Induction of HO-1 activity in human U373MG cells assessed as bilirubin production per mg protein preincubated at 10 uM for 24 hrs before H2O2 challenge by fluorimetric method (reference value: 19.6 +/-3.5 pmol/hr/mg protein); assay type: functional, U-373MG ATCC
[20] = tested on: U373 MG; assay: Induction of Glutathione reductase activity in human U373MG cells assessed as […] per mg protein preincubated at 10 uM for 24 hrs before H2O2 challenge by fluorimetric method (reference value: 9.3 +/- 2.2 nmol/min/mg protein); assay type: functional, U-373MG ATCC
[21] = tested on: U373 MG; assay: Induction of CAT activity in human U373MG cells assessed per mg protein preincubated at 5 uM for 24 hrs before H2O2 challenge by fluorimetric method (reference value: 18.9 +/- 0.4 UI/mg protein); assay type: functional, U-373MG ATCC
[22] = molecular target: T1, Nuclear factor erythroid 2-related factor 2 (Homo sapiens); assay: Induction of Nrf2-mediated SOD protein expression in H2O2-stimulated human U373MG cells preincubated at 10 uM for 24 hrs before H2O2 challenge by Western blot method; assay type: cell-based; settings: U-373MG ATCC
[23] = molecular target: T1, Nuclear factor erythroid 2-related factor 2 (Homo sapiens); assay: Induction of Nrf2-mediated CAT protein expression in H2O2-stimulated human U373MG cells preincubated at 5 uM for 24 hrs before H2O2 challenge by Western blot method; assay type: cell-based; settings: U-373MG ATCC
[24] = molecular target: T1, Nuclear factor erythroid 2-related factor 2 (Homo sapiens); assay: Induction of Nrf2-mediated SOD protein expression in H2O2-stimulated human U373MG cells preincubated at 5 uM for 24 hrs before H2O2 challenge by Western blot method; assay type: cell-based; settings: U-373MG ATCC
[25] = tested on: U373 MG; assay: Induction of HO-1 activity in human U373MG cells assessed as bilirubin production per mg protein preincubated at 5 uM for 24 hrs before H2O2 challenge by fluorimetric method (reference value: 19.6 +/-3.5 pmol/hr/mg protein); assay type: functional, U-373MG ATCC

C=CC(=C)CC[C@H]1[C@]2(C)CCC[C@](C)(CO)[C@H]2[C@H](O)C[C@]1(C)O [ANDALUSOL]
Activity [1]: 29.9 nmol/min | Activity [2]: Active | Activity [3]: 0.62 nmol | Activity [4]: Active | Activity [5]: 39.8 nmol | Activity [6]: Active | Activity [7]: 89.1 nmol/min | Activity [8]: Active | Activity [9]: 19.1 nmol/min | Activity [10]: 23.7 IU | Activity [11]: 36.3 nmol | Activity [12]: Active | Activity [13]: 82.4 nmol/min | Activity [14]: Active | Activity [15]: 0.51 nmol | Ratio [16]: 5.1 | Activity [17]: < 10% | Activity [18]: 26 IU | Activity [19]: 33.6 pmol/h | Activity [20]: 19.7 nmol/min | Activity [21]: 22.1 IU | Activity [22]: Active | Activity [23]: Active | Activity [24]: Active | Activity [25]: 30.6 pmol/h

CC1(C)CCC[C@H]2C1=CC[C@H]1C[C@@](C)([C@@H](O)CO)C[C@@H](O)[C@@]12C [LAGASCATRIOL]
Activity [1]: 27.1 nmol/min | Activity [2]: Active | Activity [3]: 0.6 nmol | Activity [4]: Active | Activity [5]: 30 nmol | Activity [6]: Active | Activity [7]: 76.9 nmol/min | Activity [8]: Active | Activity [9]: 15.8 nmol/min | Activity [10]: 23.9 IU | Activity [11]: 27.6 nmol | Activity [12]: Active | Activity [13]: 85.2 nmol/min | Activity [14]: Active | Activity [15]: 0.57 nmol | Ratio [16]: 3.8 | Activity [17]: < 10% | Activity [18]: 23.9 IU | Activity [19]: 32.6 pmol/h | Activity [20]: 20.6 nmol/min | Activity [21]: 24.2 IU | Activity [22]: Active | Activity [23]: Active | Activity [24]: Active | Activity [25]: 28.6 pmol/h

CC1(C)CCC[C@]2(C)[C@@H]1C[C@H](O)[C@@]13C=C[C@@](CO)(C1)[C@H](O)C[C@@H]23 [CONCHITRIOL]
Activity [1]: 19.4 nmol/min | Activity [2]: inactive | Activity [3]: 0.91 nmol | Activity [4]: Active | Activity [5]: 19.8 nmol | Activity [6]: inactive | Activity [7]: 59.5 nmol/min | Activity [8]: inactive | Activity [9]: 8.2 nmol/min | Activity [10]: 17.4 IU | Activity [11]: 18 nmol | Activity [12]: Active | Activity [13]: 52.6 nmol/min | Activity [14]: inactive | Activity [15]: 0.87 nmol | Ratio [16]: 2 | Activity [17]: < 10% | Activity [18]: 18.8 IU | Activity [19]: 17.8 pmol/h | Activity [20]: 10.2 nmol/min | Activity [21]: 18.8 IU | Activity [22]: inactive | Activity [23]: inactive | Activity [24]: inactive | Activity [25]: 15.9 pmol/h
